# According to ChEMBL document CHEMBL2203285, “Radiofluorinated histamine H₃ receptor antagonist as a potential probe for in vivo PET imaging: radiosynthesis and pharmacological evaluation” (Bioorg Med Chem, 2012):
# Experiments:
# Histamine H3 receptor [1] = biological target: T1, Histamine H3 receptor (Rattus norvegicus, UniProt Q9QYN8); assay: Binding affinity to rat cerebral cortex histamine H3 receptor; assay type: tissue-based
# Liver microsomes [2] = assay: Metabolic stability rat liver microsome after 90 mins by UPLC analysis; assay type: ADME; details: 1.5 h
# [3] = Metabolic stability human liver microsomes assessed as compound oxidation after 90 mins by UPLC analysis; assay type: ADME, Microsome; details: read-out: Drug metabolism
# [4] = Drug uptake in Sprague-Dawley rat thyroid gland at 29.1 MBq after 70 to 100 mins post injection by PET imaging; assay type: ADME, tissue-based; details: in vivo
# Cerebral cortex [5] = assay: Drug uptake in Sprague-Dawley rat cerebral cortex at 0.01 nM after 45 mins by autoradiography; assay type: ADME, tissue-based; details: 10 pM
# MDR1 [6] = assay: Apparent permeability from apical to basolateral side in MDCK2 cells expressing MDR1 by gamma counting; assay type: ADME, cell-based, Canis lupus familiaris, MDCK-II; details: dog, MDCK-MDR1
# [7] = Permeability from basolateral to apical side in MDCK2 cells by gamma counting; assay type: ADME, cell-based, Canis lupus familiaris; details: dog, mdck-ii
# Rattus norvegicus [8] = assay: Stability in Sprague-Dawley rat assessed as parent compound level at 250 MBq, iv measured 5 to 30 mins post dose; assay type: ADME, organism-based; details: in vivo
# [9] = Permeability from apical to basolateral side in MDCK2 cells by gamma counting; assay type: ADME, cell-based, Canis lupus familiaris; details: dog, mdck-ii
# Cerebral cortex [10] = assay: Drug uptake in Sprague-Dawley rat cerebral cortex at 0.01 nM in presence of 100 uM histamine after 45 mins by autoradiography; assay type: ADME, tissue-based; details: 10 pM
# [11] = Drug uptake in Sprague-Dawley rat skeleton joint at 29.1 MBq after 70 to 100 mins post injection by PET imaging; assay type: ADME, tissue-based; details: in vivo
# Striatum [12] = assay: Drug uptake in Sprague-Dawley rat striatum at 0.01 nM after 45 mins by autoradiography; assay type: ADME, tissue-based; details: 10 pM
# Striatum [13] = assay: Drug uptake in Sprague-Dawley rat striatum at 0.01 nM in presence of 100 uM histamine after 45 mins by autoradiography; assay type: ADME, tissue-based; details: 10 pM
# [14] = Drug level in Sprague-Dawley urine rat assessed as parent compound level at 250 MBq, iv measured 30 mins post dose; assay type: ADME, organism-based; details: in vivo, 0.5 h
# [15] = Distribution coefficient, log D of the compound in octanol and PBS buffer at pH 7.4 by shake-flask method; assay type: physicochemical
# [16] = Drug uptake in Sprague-Dawley rat salivary gland at 29.1 MBq after 70 to 100 mins post injection by PET imaging; assay type: ADME, tissue-based; details: in vivo
# Hippocampus [17] = assay: Drug uptake in Sprague-Dawley rat hippocampus at 0.01 nM in presence of 100 uM histamine after 45 mins by autoradiography; assay type: ADME, tissue-based; details: 10 pM
# Striatum [18] = assay: Drug uptake in Sprague-Dawley rat Striatum at 29.1 MBq after 70 to 100 mins post injection by PET imaging; assay type: ADME, tissue-based; details: in vivo
# [19] = Drug uptake in Sprague-Dawley rat intraorbital lacrimal gland at 29.1 MBq after 70 to 100 mins post injection by PET imaging; assay type: ADME, tissue-based; details: in vivo
# Kidney = assay: Drug uptake in Sprague-Dawley rat kidney pelvis at 29.1 MBq after 70 to 100 mins post injection by PET imaging; assay type: ADME, tissue-based; details: in vivo
# Intestine = assay: Drug uptake in Sprague-Dawley rat intestine at 29.1 MBq after 70 to 100 mins post injection by PET imaging; assay type: ADME, tissue-based; details: in vivo
# Thalamus [20] = assay: Drug uptake in Sprague-Dawley rat thalamus at 0.01 nM in presence of 100 uM histamine after 45 mins by autoradiography; assay type: ADME, tissue-based; details: 10 pM
# Adrenal gland = assay: Drug uptake in Sprague-Dawley rat adrenal gland at 29.1 MBq after 70 to 100 mins post injection by PET imaging; assay type: ADME, tissue-based; details: in vivo
# Cerebellum = assay: Drug uptake in Sprague-Dawley rat cerebellum at 0.01 nM after 45 mins by autoradiography; assay type: ADME, tissue-based; details: 10 pM
# [21] = Metabolic stability human plasma assessed as compound degradation at 60 MBq after 120 mins by UPLC analysis; assay type: ADME, cell-free; details: read-out: Drug degradation
# Liver microsomes [22] = assay: Metabolic stability human liver microsome after 120 mins by UPLC analysis; assay type: ADME; details: 2 h
# Histamine H3 receptor [23] = biological target: T1, Histamine H3 receptor; assay: Binding affinity to rat brain histamine H3 receptor after 1 hr by gamma counting
# Cerebral cortex [24] = assay: Drug uptake in Sprague-Dawley rat Cerebral cortex at 29.1 MBq after 70 to 100 mins post injection by PET imaging; assay type: ADME, tissue-based; details: in vivo
# MDR1 [25] = assay: Apparent permeability from basolateral to apical side in MDCK2 cells expressing MDR1 by gamma counting; assay type: ADME, cell-based, Canis lupus familiaris, MDCK-II; details: dog, MDCK-MDR1
# Liver microsomes [26] = assay: Metabolic stability rat liver microsome after 120 mins by UPLC analysis; assay type: ADME; details: 2 h
# Thalamus [27] = assay: Drug uptake in Sprague-Dawley rat thalamus at 0.01 nM after 45 mins by autoradiography; assay type: ADME, tissue-based; details: 10 pM
# Rattus norvegicus [28] = assay: Drug uptake in Sprague-Dawley rat at 29.1 MBq after 70 to 100 mins post injection coadministered with 2 mg/kg ciproxifan by PET imaging; assay type: ADME, organism-based; parameters: dose 2 mg/kg; details: in vivo
# [29] = Drug uptake in Sprague-Dawley rat Spinal colum at 29.1 MBq after 70 to 100 mins post injection by PET imaging; assay type: ADME; details: in vivo
# Plasma = assay: Metabolic stability human plasma at 60 MBq after 60 mins by UPLC analysis; assay type: ADME, cell-free; details: 1 h
# Rattus norvegicus [30] = assay: Drug uptake in Sprague-Dawley rat at 29.1 MBq after 70 to 100 mins post injection coadministered with 1 mg/kg ST900 by PET imaging; assay type: ADME, organism-based; parameters: dose 1 mg/kg; details: in vivo
# [31] = Drug uptake in Sprague-Dawley rat urinary bladder at 29.1 MBq after 70 to 100 mins post injection by PET imaging; assay type: ADME, tissue-based; details: in vivo
# Histamine H3 receptor [32] = biological target: T1, Histamine H3 receptor; assay: Binding affinity to rat histamine H3 receptor low affinity site after 1 hr by Schard plot analysis
# MDR1 [33] = assay: Efflux ratio of permeability from basolateral to apical side over apical to basolateral side in MDCK2 cells expressing MDR1 by gamma counting; assay type: ADME, cell-based, Canis lupus familiaris, MDCK-II; details: dog, MDCK-MDR1
# Hippocampus [34] = assay: Drug uptake in Sprague-Dawley rat hippocampus at 0.01 nM after 45 mins by autoradiography; assay type: ADME, tissue-based; details: 10 pM
# [35] = Metabolic stability human plasma assessed as parent compound level at 60 MBq after 90 mins by UPLC analysis; assay type: ADME, cell-free; details: read-out: Stability
# [36] = Drug uptake in Sprague-Dawley rat harderin gland at 29.1 MBq after 70 to 100 mins post injection by PET imaging; assay type: ADME, tissue-based; details: in vivo
# Liver = assay: Drug uptake in Sprague-Dawley rat liver at 29.1 MBq after 70 to 100 mins post injection by PET imaging; assay type: ADME, tissue-based; details: in vivo
# T1 sequence (Q9QYN8 whole entry): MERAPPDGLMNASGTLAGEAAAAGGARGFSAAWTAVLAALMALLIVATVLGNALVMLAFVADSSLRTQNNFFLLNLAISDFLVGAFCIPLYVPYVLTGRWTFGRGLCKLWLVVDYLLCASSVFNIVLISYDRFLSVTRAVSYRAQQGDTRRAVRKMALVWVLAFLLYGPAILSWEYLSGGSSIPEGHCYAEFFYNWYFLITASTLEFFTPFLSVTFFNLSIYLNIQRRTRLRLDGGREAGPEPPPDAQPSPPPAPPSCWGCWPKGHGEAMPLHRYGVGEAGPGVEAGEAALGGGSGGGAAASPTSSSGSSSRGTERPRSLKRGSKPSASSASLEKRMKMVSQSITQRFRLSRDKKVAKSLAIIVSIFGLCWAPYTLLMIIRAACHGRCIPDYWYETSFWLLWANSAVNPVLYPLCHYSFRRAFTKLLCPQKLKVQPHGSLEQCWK
compound,measurement,setting,value
O=C(O)c1cn(C2CC2)c2cc(N3CCNCC3)c(F)cc2c1=O [CIPROFLOXACIN],Ki,Histamine H3 receptor [1],0.654 nM
C[C@]12CC[C@H]3[C@@H](CCC4=CC(=O)CC[C@@]43C)[C@@H]1CC[C@@H]2O [TESTOSTERONE],Stability,Liver microsomes [2],Unstable
same,metabolised at 1.5 h,[3],60%
[18F]C1CCN(Cc2ccc(OCCCN3CCCCC3)cc2)CC1,Drug uptake,[4],Active
same,Drug uptake,Cerebral cortex [5],Active
same,Papp A→B,MDR1 [6],0.16 ×10⁻⁶ cm/s
same,permeability,[7],permeable
same,Stability,Rattus norvegicus [8],Stable
same,permeability,[9],permeable
same,Drug uptake,Cerebral cortex [10],Not Active
same,Drug uptake,[11],Active
same,Drug uptake,Striatum [12],Active
same,Drug uptake,Striatum [13],Not Active
same,Drug uptake,[14],90%
same,logD,[15],0.35
same,Drug uptake,[16],Active
same,Drug uptake,Hippocampus [17],Not Active
same,Drug uptake,Striatum [18],Not Active
same,Drug uptake,[19],Active
same,Drug uptake,Kidney,Active
same,Drug uptake,Intestine,Active
same,Drug uptake,Thalamus [20],Not Active
same,Drug uptake,Adrenal gland,Active
same,Drug uptake,Cerebellum,Not Active
same,"metabolised at 2 h, 60 MBq",[21],3%
same,Stability,Liver microsomes [22],Stable
same,Kd,Histamine H3 receptor [23],0.34 nM
same,Drug uptake,Cerebral cortex [24],Not Active
same,Papp B→A,MDR1 [25],0.12 ×10⁻⁶ cm/s
same,Stability,Liver microsomes [26],Stable
same,Drug uptake,Thalamus [27],Active
same,Drug uptake,Rattus norvegicus [28],Active
same,Drug uptake,[29],Active
same,Stability,Plasma,Stable
same,Drug uptake,Rattus norvegicus [30],Active
same,Drug uptake,[31],Active
same,Kd,Histamine H3 receptor [32],> 3000 nM
same,efflux ratio,MDR1 [33],0.8
same,Drug uptake,Hippocampus [34],Active
same,"remaining at 1.5 h, 60 MBq",[35],98%
same,Drug uptake,[36],Active
same,Drug uptake,Liver,Active
CC[C@]1(O)C[C@@H]2CN(CCc3c([nH]c4ccccc34)[C@@](C(=O)OC)(c3cc4c(cc3OC)N(C)[C@H]3[C@@](O)(C(=O)OC)[C@H](OC(C)=O)[C@]5(CC)C=CCN6CC[C@]43[C@@H]65)C2)C1 [VINBLASTINE],Papp A→B,MDR1 [6],0.22 ×10⁻⁶ cm/s
same,Papp B→A,MDR1 [25],3.24 ×10⁻⁶ cm/s
same,efflux ratio,MDR1 [33],15
